{
  "source": "patent US20230118467A1",
  "about": "“COSMETIC OR PHARMACEUTICAL USE OF AVENANTHRAMIDE L” (priority 2020, published 2023)",
  "key": {"tachykinin NK1 receptor": {"target": "T1, tachykinin NK1 receptor (Homo sapiens, UniProt P25103)", "T1 construct": "expressed in transfected cells; host or cells: CHO cells", "T1 sequence (P25103 whole entry)": "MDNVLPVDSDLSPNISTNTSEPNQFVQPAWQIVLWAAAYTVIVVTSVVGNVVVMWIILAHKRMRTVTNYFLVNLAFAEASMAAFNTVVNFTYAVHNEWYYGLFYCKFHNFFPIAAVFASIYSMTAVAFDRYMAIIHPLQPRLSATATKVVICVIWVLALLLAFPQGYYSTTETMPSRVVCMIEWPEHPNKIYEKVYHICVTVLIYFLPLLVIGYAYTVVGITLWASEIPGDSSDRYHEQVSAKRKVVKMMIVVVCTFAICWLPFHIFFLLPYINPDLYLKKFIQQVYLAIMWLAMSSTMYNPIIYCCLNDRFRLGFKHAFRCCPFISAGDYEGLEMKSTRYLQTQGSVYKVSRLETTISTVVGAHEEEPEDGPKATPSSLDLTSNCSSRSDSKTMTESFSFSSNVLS", "experiment": "NK1 receptor inhibition study, radioligand binding assay ([3H] Substance P)", "settings": "read-out: Percent inhibition of specific binding to the tachykinin NK1 receptor", "protocol": "The inhibition activity of avenanthramide L versus dihydroavenanthramide D and the structurally related avenanthramides A and D was evaluated in a radioligand binding assay.\nThe method employed in this study was adapted from the scientific literature so as to maximise reliability and reproducibility. Reference compound L-703,606 was run as an integral part of each experiment, to ensure the validity of the results obtained. The assay was performed under the conditions described in the following respective method.\nSource: Human recombinant CHO cells\nIncubation time/temperature: 90 minutes at 4° C. Incubation buffer: 20 mM HEPES, pH 7.4, • 1 mM MnCl2 • 0.1% BSA\nLigand: 0.80 nM [3H] Substance P\nNon-specific ligand: 10.0 μM L-703,606 oxalate salt (CAS 144425-84-3) Specific binding: 90% Significance criteria: ≥50% of max. stimulation or inhibition Bmax: 1.70 pmol/mg protein\nIn another experiment, the inhibitory activity of a combination of avenanthramide L and another avenanthramide was evaluated in comparison to both substances alone in the radioligand binding assay as described in Example 1 to investigate a potential synergism."}, "HPRT1 (housekeeping)": {"test_system": "HPRT1 (housekeeping)", "experiment": "Gene expression in neonatal human epidermal keratinocytes (real-time PCR): HPRT1", "assay_type": "cell-based", "settings": "100 μM, 24 hours", "protocol": "(§1) Neonatal human epidermal keratinocytes (nHEK) were cultivated in an EpiLife® medium (Gibco) including an HKGS kit (Gibco) with 5% C02 at 37° C. in accordance with the supplier's instructions.\n(§2) The cells were treated for 24 hours, with the test compounds dissolved in DMSO and DMSO alone as the vehicle control. Genomic target expression levels in treated cells were measured using a quantitative Real-Time PCR comparison to vehicle control treatment.\n(§3) RNA was isolated using Qiagen's RNeasy® Mini Kit. The total RNA concentrations were measured using Eppendorf's pCuvetteG 1.0 and BioPhotometer, by measuring the absorption at 260 nm. Purity control values such as E260/280 and E260/230 were calculated simultaneously. Reverse transcription was performed using the high-capacity RNA-to-cDNA kit of Applied Biosystems, in accordance with the supplier's instructions. Samples were treated in Biometra's PCR Thermocycler.\n(§4) For fast real-time PCR, the cDNA was diluted with RNase-free water, and the TaqMan™ Fast Universal PCR Master Mix of Applied Biosystems was used.\n(§5) Quantitative real-time PCR was performed using the StepOnePlus fast real-time PCR instrument by Applied Biosystems. Analysis was conducted using the StepOne software and 2^−ΔΔct method (normalised to endogenous control […] expression).\n(§6) For upregulations, RQ values ≥2.0 are considered to be relevant. […]"}, "[1]": {"experiment": "Temperature stability at 40° C. of avenanthramide mixture in solution", "assay_type": "physicochemical", "description": "with p=sample 1 and v=sample 2"}, "HSP90AA1": {"test_system": "HSP90AA1", "experiment": "Gene expression in neonatal human epidermal keratinocytes (real-time PCR): HSP90AA1", "assay_type": "cell-based", "settings": "100 μM, 24 hours, nHEK, vs DMSO vehicle, RQ ≥2.0 relevant", "protocol": "as §1, §2, §3, §4, §5\n(§7) For upregulations, RQ values ≥2.0 are considered to be relevant."}, "[2]": {"test_system": "Primary human dermal fibroblasts", "experiment": "Cellular antioxidant activity (DCF-DA assay)", "assay_type": "cell-based", "settings": "24 h incubation, prooxidant challenge 1 mM 1 h", "protocol": "The DCF-DA assay is a fluorometric microplate assay for the detection of oxidative stress by detecting oxidation of 2′,7′-dichlorofluorescein-diacetate (DCF-DA) into the highly fluorescent compound 2′,7′-dichlorofluorescein (DCF) due to the presence of reactive oxygen species (ROS). The DCF-DA assay allows the cellular antioxidant activity of a substance to be determined.\nPrimary human dermal fibroblasts were seeded in a 96-well microtiter plate at a concentration of 0.5×10^4 cells/well. Cultivation took place at 37° C. and 5% CO2 in DMEM, enriched with 10% foetal calf serum. Confluence was supposed to be around 70% at the time, the incubation with the test substances began. The test substances were applied to the cells at a concentration of 500 μM. After 24 h of incubation, 100 μL H2DCF-DA-solution (10 μM) incl. DAPI (1:1000) was added to all samples (excluded the background-control) and incubated for one hour to deesterify the H2DCF-DA by cellular esterases. The resulting H2DCF was thereby trapped inside the cell. After the incubation, the cells were washed and the prooxidant challenge was set (1 mM, 1 h). The resulting fluorescence was read at λex 504 nm; λem 524 nm. An increased level of ROS (reactive oxygen species) led to an increased amount of fluorescence.\nThe inhibition of the oxidation in the presence of test substances was calculated according to the following equation: […]\nThe abbreviations have the following meanings: • RFU test substance: Relative fluorescence units of the wells with test substance and with cells • RFU control: Relative fluorescence units of the wells without test substance, but with cells • RFU without cells: Relative fluorescence units of the wells without test substance and without cells (blank)"}, "CD44": {"test_system": "CD44", "experiment": "Gene expression in neonatal human epidermal keratinocytes (real-time PCR): CD44", "assay_type": "cell-based", "settings": "100 μM, 24 hours, nHEK; RQ ≥2.0 relevant; listed as avenanthramide L", "protocol": "as §1, §2, §3, §4, §5, §6"}, "[3]": {"settings": "24 h", "quoted_text": "(§8) Stability under exposure to oxygen and temperature was evaluated for dissolved pure avenanthramides in aqueous ethanolic solution, both alone and as an avenanthramide mixture.\n(§9) Avenantharmide mixtures used were DragoCalm® (Symrise; INCI Name: Aqua, Glycerin, Avena Sativa Kernel Extract) or DragoCalm® SP (Symrise; INCI Name: Aqua, Glycerin, Pentylene Glycol, Avena Sativa Kernel Extract).\n(§10) The liquids were either exposed to 5 bars of oxygen at 70° C. for 24 hours using the Oxipress device or stored for 2 and 4 weeks at 40° C. in a heating cabinet.\n(§11) The content of Avns was determined by HPLC, and the colour was measured by colorimetry (Hach Lange Lico 690 instrument) before and after treatment.\n(§12) Color can be determined using the CIELAB color model which is based on an opponent color system. CIELAB indicates the color by values on three axes: L*, a*, and b* with dimension L for lightness and a* and b* for the color-opponent dimensions red/green and yellow/blue, based on nonlinearly compressed coordinates. The L* axis extends from black (0) to white (100), the a* axis from green (−a) to red (+a) and the b* axis from blue (−b) to yellow (+b).\n(§13) The difference of 2 colors ΔE can be calculated using the following equation:\n(§14) ΔEp,v=√{square root over ((Lp*−Lv*)^2+(ap*−av*)^2+bp*−bv*)^2)}\n(§15) A difference of ΔE of 0.5-1 can be visually observed by a trained evaluator by naked eye. A difference of 2-4 can be observed visually also by a non-trained evaluator."}, "CRYAB": {"test_system": "CRYAB", "experiment": "Gene expression in neonatal human epidermal keratinocytes (real-time PCR): CRYAB", "assay_type": "cell-based", "settings": "100 μM, 24 hours, nHEK, vs DMSO vehicle, RQ ≥2.0 relevant", "protocol": "as §1, §2, §3, §4, §5, §7"}, "[4]": {"experiment": "Oxidative stability (Oxipress) of avenanthramides in solution", "settings": "for Content after treatment: 5 bars of oxygen at 70° C. for 24 hours; for Content before treatment: HPLC", "quoted_text": "as §8, §9, §10, §11, §12, §13, §14, §15"}, "HSP90AB1": {"test_system": "HSP90AB1", "experiment": "Gene expression in neonatal human epidermal keratinocytes (real-time PCR): HSP90AB1", "assay_type": "cell-based", "settings": "100 μM, 24 hours, nHEK, vs DMSO vehicle, RQ ≥2.0 relevant", "protocol": "as §1, §2, §3, §4, §5, §7"}, "BLVRB": {"test_system": "BLVRB", "experiment": "Gene expression in neonatal human epidermal keratinocytes (real-time PCR): BLVRB", "assay_type": "cell-based", "settings": "100 μM, 24 hours, nHEK; RQ ≥2.0 relevant; listed as avenanthramide L", "protocol": "as §1, §2, §3, §4, §5, §6"}, "[5]": {"settings": "Avn in mixture DragoCalm (glycerin/water)"}, "[6]": {"settings": "Avn in mixture DragoCalm SP (glycerin/water)"}, "[7]": {"settings": "single Avn in aqueous ethanolic solution (0.01 wt %)"}},
  "note": "“And” between values parts separate entries of the source, which are not always exact repeats. Identical values can stand only once. Like-named read-outs stand apart in the source and are kept apart here.",
  "data": [
    {"smiles": "O=C(/C=C/C=C/c1ccc(O)cc1)Nc1ccc(O)cc1C(=O)O", "note": "[Avn L, 5-hydroxy-2-[(2E,4E)-5-(4-hydroxyphenyl)penta-2,4-dienamido]benzoic acid]", "values": [
      {"measurement": "inhibition at 0.1 ppm", "setting": "tachykinin NK1 receptor; test concentration 0.1 ppm", "result": 9, "unit": "%"},
      {"measurement": "inhibition at 1 ppm", "setting": "tachykinin NK1 receptor; test concentration 1 ppm", "result": 15, "unit": "%"},
      {"measurement": "inhibition at 10 ppm", "setting": "tachykinin NK1 receptor; test concentration 10 ppm", "result": 20, "unit": "%"},
      {"measurement": "inhibition at 100 ppm", "setting": "tachykinin NK1 receptor; test concentration 100 ppm", "result": 42, "unit": "%"},
      {"measurement": "inhibition at 125 ppm", "setting": "tachykinin NK1 receptor; test concentration 125 ppm (Example 7)", "result": 37, "unit": "%"},
      {"measurement": "RQ value, HPRT1 (housekeeping)", "setting": "HPRT1 (housekeeping); nHEK (Example 4 gene array)", "result": 1.0},
      {"measurement": "RQ value, HPRT1 (housekeeping)", "setting": "HPRT1 (housekeeping); nHEK, vs DMSO vehicle (Example 3)", "result": 1.0},
      {"measurement": "Content after 2 weeks at 40° C.", "setting": "[1]; [5]", "result": 11, "unit": "ppm"},
      {"measurement": "Content after 4 weeks at 40° C.", "setting": "[1]; [5]", "result": 10, "unit": "ppm"},
      {"measurement": "Content before treatment", "setting": "[1]; Avn in mixture DragoCalm (glycerin/water), HPLC", "result": 11, "unit": "ppm"},
      {"measurement": "Degradation in %", "setting": "[1]; Avn in mixture DragoCalm, after 4 weeks at 40° C.", "result": 9, "unit": "%"},
      {"measurement": "RQ value, HSP90AA1", "setting": "HSP90AA1", "result": 0.9},
      {"measurement": "RQ value, HSP90AA1", "setting": "HSP90AA1; listed as avenanthramide L", "result": "no effect"},
      {"measurement": "Inhibition of oxidation", "setting": "[2]; 500 μM", "result": "higher antioxidant activity than avenanthramide A"},
      {"measurement": "inhibition at 500 µM", "setting": "[2]; Homo sapiens, Fibroblast, read-out: Inhibition of oxidation", "result": "49 ± 7", "unit": "%"},
      {"measurement": "RQ value, CD44", "setting": "CD44", "result": "upregulates"},
      {"measurement": "Degradation in %", "setting": "[3]", "result": 13, "unit": "%"},
      {"measurement": "Degradation in %", "setting": "[3]; 0.01 wt %", "result": 3, "unit": "%"},
      {"measurement": "RQ value, CRYAB", "setting": "CRYAB", "result": "2.1 and 1.6"},
      {"measurement": "RQ value, CRYAB", "setting": "CRYAB; listed as avenanthramide L", "result": "upregulates"},
      {"measurement": "Content after treatment", "setting": "[4]; [6]", "result": 7, "unit": "ppm"},
      {"measurement": "Content before treatment", "setting": "[4]; [6]", "result": 8, "unit": "ppm"},
      {"measurement": "Content after treatment", "setting": "[4]; [7]", "result": 100, "unit": "ppm"},
      {"measurement": "Content before treatment", "setting": "[4]; [7]", "result": 103, "unit": "ppm"},
      {"measurement": "ΔE (colour difference, CIELAB)", "setting": "[4]; single Avn in aqueous ethanolic solution (0.01 wt %), before vs after 5 bars of oxygen at 70° C. for 24 hours", "result": 0.6},
      {"measurement": "RQ value, HSP90AB1", "setting": "HSP90AB1", "result": "0.4 and 0.5"},
      {"measurement": "RQ value, HSP90AB1", "setting": "HSP90AB1; listed as avenanthramide L", "result": "no effect"},
      {"measurement": "RQ value, BLVRB", "setting": "BLVRB", "result": "upregulates"}
    ]}
  ]
}
